Test results: PMC10967822, “Antimicrobial Indole-3-Carboxamido-Polyamine Conjugates Target Bacterial Membranes and Are Antibiotic Potentiators” (Biomolecules, 2024)
pIC50: −log10 of the molar value. Values after ≈ are worked out from the molar mass of the structure shown. Values joined by “and” are separate entries in the source; they are usually repeats but may differ in a detail not shown here. Identical values can stand only once. Like-named read-outs stand apart in the source and are kept apart here. Marks after values point to notes of the source that are not given here. One block for each molecule: values may come before it.

Key:
S. aureus ATCC 25923 [1] = details: ref Cadelis et al. [13]; cited from earlier work
MRSA ATCC 43300 [2] = system: MRSA ATCC 43300; parameters: method as in Cadelis et al. [13]; details: ref Cadelis et al. [13]; cited from earlier work
[3] = system: C. neoformans ATCC 208821; parameters: method as in Cadelis et al. [13]; details: ref Cadelis et al. [13]; cited from earlier work
E. coli ATCC 25922 [4] = system: E. coli ATCC 25922; parameters: method as in Cadelis et al. [13]; details: ref Cadelis et al. [13]; cited from earlier work
P. aeruginosa ATCC 27853 [5] = details: cited from earlier work
C. albicans ATCC 90028 [6] = system: C. albicans ATCC 90028; parameters: method as in Cadelis et al. [13]; details: ref Cadelis et al. [13]; cited from earlier work
[7] = system: K. pneumoniae ATCC 700603; parameters: method as in Cadelis et al. [13]; details: ref Cadelis et al. [13]; cited from earlier work
A. baumannii ATCC 19606 [8] = system: A. baumannii ATCC 19606; parameters: method as in Cadelis et al. [13]; details: ref Cadelis et al. [13]; cited from earlier work
P. aeruginosa ATCC 27853 [9] = details: cited from earlier work; remark: listed apart in the source
[10] = system: HEK293 human embryonic kidney cells; parameters: method as in Cadelis et al. [13]; details: ref Cadelis et al. [13], read-out: Cytotoxicity IC50; cited from earlier work
E. coli ATCC 25922 [11] = assay: Erythromycin potentiation against E. coli; format: cell-based, Escherichia coli; details: erythromycin at 2 µg/mL (2.7 µM); for Erythro/Ec: concentration required to restore erythromycin activity (combination MIC): mean n = 3
Source text: (§1) These measurements were independently repeated in triplicate.

human red blood cells [12] = details: cited from earlier work
C. albicans ATCC 90028 [13] = assay: Antifungal MIC (CO-ADD), C. albicans; format: cell-based; details: Candida albicans, ATCC90028, top dose 32 µg/mL
Outline: (§2)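 Yeast inocula prepared from YPD-agar colonies grown 3 days at 30 °C, diluted in YNB broth to 2.5 × 10^3 CFU/mL and incubated 36 h at 35 °C without shaking. C. albicans MIC read at OD530; C. neoformans MIC read at OD570–600 after 3 h with 0.006% resazurin.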

A. baumannii ATCC 19606 [14] = assay: MIC, broth microdilution (CO-ADD), A. baumannii; format: cell-based, Acinetobacter baumannii; details: Acinetobacter baumannii, ATCC19606, top dose 32 µg/mL
E. coli ATCC 25922 [15] = assay: MIC, broth dilution, E. coli; format: cell-based, Escherichia coli; details: Escherichia coli, ATCC25922; E. coli ATCC 25922, 18 h
S. aureus ATCC 25923 [16] = assay: MIC, broth dilution, S. aureus; format: cell-based, Staphylococcus aureus
human red blood cells [17] = assay: Hemolytic assay; format: cell-based; details: 10% hemolytic activity, mean n = 2
Outline: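 Washed human erythrocytes (0.5 × 10^8 cells/mL in 0.9% NaCl) were incubated with compounds for 1 h at 37 °C. Haemoglobin release was read as supernatant OD405. HC10 and HC50 came from sigmoidal dose–response fits.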

P. aeruginosa PAO1 [18] = assay: Real-time growth curves, P. aeruginosa; format: cell-based, Pseudomonas aeruginosa
S. aureus ATCC 25923 [19] = assay: ATP efflux (membrane disruption), S. aureus; format: cell-based, Staphylococcus aureus; details: S. aureus ATCC 25923, single dose 100 µg/mL, relative to squalamine
Experimental: (§3) A solution of the compound was prepared in twice-distilled water at a fixed concentration of 100 μg/mL. The different Gram-positive suspensions were prepared in MH II broth and were incubated at 37 °C. Then, 90 µL of each bacterial suspension was added to 10 µL of the compound solution and shaken for 20 s in the incubator at 37 °C. Subsequently, 50 µL of Luceferin–Luciferase reagent (Yelen, Marseille, France) was added to the mixture, and the luminescent signal was quantified with an Infinite M200 microplate reader (Tecan, Männedorf, Switzerland) for 6 readings spaced 30 s apart. The ATP concentration was quantified by internal sample addition. Squalamine (100 µg/mL) was used as the positive control to quantify the maximum level of ATP efflux and water as the negative control. This assay was performed in three independent experiments.

P. aeruginosa ATCC 27853 [20] = assay: MIC, broth dilution, P. aeruginosa; format: cell-based, Pseudomonas aeruginosa; details: Pseudomonas aeruginosa, ATCC27853
MRSA ATCC 43300 [21] = assay: MIC, broth microdilution (CO-ADD), MRSA; format: cell-based, methicillin-resistant S. aureus; details: Staphylococcus aureus; MRSA ATCC 43300; top dose 32 µg/mL; read-out: MIC MRSA
[22] = system: K. pneumoniae ATCC 700603; assay: MIC, broth microdilution (CO-ADD), K. pneumoniae; details: top dose 32 µg/mL
[23] = system: C. neoformans ATCC 208821; assay: Antifungal MIC (CO-ADD), C. neoformans; format: cell-based; details: Cryptococcus neoformans, ATCC208821, top dose 32 µg/mL
Outline: as §2

P. aeruginosa ATCC 27853 [24] = assay: Doxycycline potentiation against P. aeruginosa; format: cell-based, Pseudomonas aeruginosa; details: doxycycline at 2 µg/mL (4.5 µM)
Source text: as §1

MRSA = assay: ATP efflux (membrane disruption), MRSA; format: cell-based, methicillin-resistant S. aureus; details: single dose 100 µg/mL, relative to squalamine
Experimental: as §3

S. aureus ATCC 25923 [25] = assay: Real-time growth curves, S. aureus; format: cell-based, Staphylococcus aureus; details: for Concentration at which bacterial growth resumed after 2 h: S. aureus ATCC 25923, real-time growth
Experimental: The solutions of the compound at the concentrations of 2, 4, and 16 µg/mL were tested each in triplicate against S. aureus ATCC 25923. Typically, in a 96-well plate were placed 10 µL of 40, 80, and 320 µg/mL stock solutions of compound, as well as 190 µL of 5 × 10^5 CFU/mL of the selected bacterial suspension in brain heart infusion (BHI) broth. Positive controls containing only 200 µL of 5 × 10^5 CFU/mL of the bacterial suspension in BHI and negative controls containing only 200 µL of BHI broth were added. The plate was incubated at 37 °C in a TECAN Spark Reader (Roche Diagnostic, Meylan, France) and the real-time bacterial growth was followed by OD590 nm measurements every 20 min for 18 h.

P. aeruginosa PAO1 [26] = assay: Nitrocefin hydrolysis assay (outer membrane permeabilization); format: cell-based, Pseudomonas aeruginosa; details: P. aeruginosa PAO1, top dose 128 µg/mL
Experimental: Outer membrane permeabilization was measured using nitrocefin as a chromogenic substrate of periplasmic β-lactamase. A total of 10 milliliters of MH broth were inoculated with 0.1 mL of an overnight culture of PAO1 bacteria and grown at 37 °C until the OD600 reached 0.5. The remaining steps were performed at room temperature. The cells were recovered by centrifugation (4000 rpm for 20 min) and washed once in 20 mM potassium phosphate buffer (pH 7.2) containing MgCl2 (1 mM). After a second centrifugation, the pellet was resuspended and adjusted to OD600 of 0.5. Then, 50 µL of the desired compound was added to 100 µL of the cell suspension to obtain a final concentration varying from 3.9 µM to 250 µM. A total of 50 microliters of nitrocefin was then added to obtain a final concentration of 50 µg/mL. Nitrocefin hydrolysis was monitored spectrophotometrically by measuring the increase in absorbance at 490 nm. The assays were performed in 96-well plates using a M200 Pro Tecan (Tecan, Männedorf, Switzerland) spectrophotometer.

[27] = Cytotoxicity assay (resazurin); format: cell-based; details: human, HEK293 cells, mean n = 2

Erythro/Ec: concentration required to restore erythromycin activity (combination MIC) (E. coli ATCC 25922 [11]): 100 µM
Compound: O=C(NCCCNCCCCNCCCNC(=O)c1c[nH]c2ccc(Br)cc12)c1c[nH]c2ccc(Br)cc12 [Compound 3, α,ω-di-(5-bromoindole-3-carboxamido)spermine]
MIC Sa (S. aureus ATCC 25923 [1]): 4.8 ^i µM
MIC MRSA (MRSA ATCC 43300 [2]): 12.4 ^i µM
MIC Cn [3]: 12.4 ^i µM
MIC Ec (E. coli ATCC 25922 [4]): 200 ^i µM
MIC Pa (P. aeruginosa ATCC 27853 [5]; ref Cadelis et al. [13]): 200 ^i µM
MIC Ca (C. albicans ATCC 90028 [6]): 49.5 ^i µM
MIC Kp [7]: >50 ^i µM
MIC Ab (A. baumannii ATCC 19606 [8]): >50 ^i µM
Dox/Pa: concentration required to restore doxycycline activity (combination MIC) (P. aeruginosa ATCC 27853 [9]; doxycycline at 2 µg/mL (4.5 µM), P. aeruginosa ATCC 27853, ref Cadelis et al. [13]): 3.125 µM
Dox/Pa fold-change (intrinsic MIC / combination MIC) (P. aeruginosa ATCC 27853 [9]; doxycycline at 2 µg/mL, P. aeruginosa ATCC 27853, ref Cadelis et al. [13]): 64 fold
pIC50 [10]: < 4.30
Hemolysis HC10 (human red blood cells [12]): >50 ^c µM

MIC (C. albicans ATCC 90028 [13]): > 35 µM
MIC (A. baumannii ATCC 19606 [14]): ≤ 0.28 µM
MIC (E. coli ATCC 25922 [15]): 6.92 µM (≈ 4.67 µg/mL)
MIC (S. aureus ATCC 25923 [16]; S. aureus ATCC 25923, 18 h, read-out: MIC Sa): 2.2 µM
MIC (S. aureus ATCC 25923 [16]; Staphylococcus aureus, ATCC25923, S. aureus ATCC 25923, 18 h, read-out: MIC Sa): 2.2 µM
MIC (S. aureus ATCC 25923 [16]; Staphylococcus aureus, ATCC25923, read-out: MIC S. aureus (microdilution)): 2 µg/mL
MIC (P. aeruginosa ATCC 27853 [20]; P. aeruginosa ATCC 27853, 18 h, read-out: MIC Pa): 71 µM
MIC (P. aeruginosa ATCC 27853 [20]; read-out: MIC P. aeruginosa (microdilution)): 64 µg/mL
MIC (MRSA ATCC 43300 [21]): ≤ 0.28 µM
MIC Kp [22]: >35 µM
MIC [23]: ≤ 0.28 µM
Dox/Pa fold-change (intrinsic MIC / combination MIC) (P. aeruginosa ATCC 27853 [24]; P. aeruginosa ATCC 27853): 21 fold
Dox/Pa: concentration required to restore doxycycline activity (combination MIC) (P. aeruginosa ATCC 27853 [24]; P. aeruginosa ATCC 27853, mean n = 3): 3.46 µM
Erythro/Ec fold-change (intrinsic MIC / combination MIC) (E. coli ATCC 25922 [11]; E. coli): 1 fold
Erythro/Ec: concentration required to restore erythromycin activity (combination MIC) (E. coli ATCC 25922 [11]): 6.92 µM
Compound: O=C(NCCCNCCCCCCNCCCNC(=O)c1c[nH]c2ccc(Br)cc12)c1c[nH]c2ccc(Br)cc12 [Compound 13b]
Hemolysis HC10 (human red blood cells [17]): >35 µM
Concentration at which bacterial growth resumed after 4 h (P. aeruginosa PAO1 [18]): 35.5 μM and 32 μg/mL
ATP release (membrane disruption) (S. aureus ATCC 25923 [19]): more potent of the two compounds
ATP release (membrane disruption) (MRSA): more potent of the two compounds
Concentrations giving complete inhibition in real-time growth curves (S. aureus ATCC 25923 [25]; S. aureus ATCC 25923, 18 h): 32 to 2 μg/mL and 35.5 to 2.2 μM
Concentration at which bacterial growth resumed after 2 h (S. aureus ATCC 25923 [25]): 1 μg/mL and 1.1 μM
Outer membrane disruption (nitrocefin hydrolysis) (P. aeruginosa PAO1 [26]): able to disrupt the outer membrane only at the top dose
IC50 at 20 h [27]: > 35 µM

Compound: O=C(Cc1c[nH]c2ccc(Br)cc12)NCCCNCCCCCCCNCCCNC(=O)Cc1c[nH]c2ccc(Br)cc12 [Compound 19, reference compound]
Concentration at which bacterial growth resumed after 4 h (P. aeruginosa PAO1 [18]): 128 μg/mL and 135.5 μM
ATP release (membrane disruption) (S. aureus ATCC 25923 [19]): noticeably less active than the positive control squalamine
ATP release (membrane disruption) (MRSA): noticeably less active than the positive control squalamine
Concentration at which bacterial growth resumed after 2 h (S. aureus ATCC 25923 [25]): 8.5 μM and 8 μg/mL
MIC P. aeruginosa (P. aeruginosa ATCC 27853 [5]): 100 μg/mL and 106 μM
Outer membrane disruption (nitrocefin hydrolysis) (P. aeruginosa PAO1 [26]): inactive at all test doses
Combined MIC with doxycycline against P. aeruginosa (P. aeruginosa ATCC 27853 [9]; doxycycline potentiation): 6.6 µM
Fold enhancement with doxycycline against P. aeruginosa (P. aeruginosa ATCC 27853 [9]; doxycycline potentiation): 18 fold
